Values joined by “and” are separate entries in the source; they are usually repeats but may differ in a detail not shown here. Equal values may be shown once. Inconclusive results and toxic doses are left out.
Test system: P388 leukemia ip, CD2F1 mice, survival T/C
Assay: NCI In Vivo Anticancer Drug Screen. Data for tumor model P388 Leukemia (intraperitoneal) in CD2F1 (CDF1) mice
Conditions: endpoint: median survival time, higher = longer survival
In short: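 Mice carrying the transplanted tumor received test compound or vehicle. Survival was recorded in each group, and the value is the treated-group measurement divided by that of the vehicle-treated control group.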

[1] = dose: 25.0 mg/kg/injection, schedule: Q01DX005 (ip), vehicle: saline with Tween-80
[2] = dose: 50.0 mg/kg/injection, schedule: Q01DX005 (ip), vehicle: saline with Tween-80
[3] = dose: 100.0 mg/kg/injection, schedule: Q01DX005 (ip), vehicle: saline with Tween-80
[4] = dose: 200.0 mg/kg/injection, schedule: Q01DX005 (ip), vehicle: saline with Tween-80
[5] = dose: 50.0 mg/kg/injection, schedule: Q01DX009 (ip), vehicle: saline with Tween-80
[6] = dose: 120.0 mg/kg/injection, schedule: Q01DX005 (ip), vehicle: Klucel (hydroxypropylcellulose) (HPC)
[7] = dose: 200.0 mg/kg/injection, schedule: Q01DX009 (ip), vehicle: saline with Tween-80
[8] = dose: 50.0 mg/kg/injection, schedule: Q01DX009 (ip), vehicle: Klucel (hydroxypropylcellulose) (HPC)
[9] = dose: 100.0 mg/kg/injection, schedule: Q01DX009 (ip), vehicle: Klucel (hydroxypropylcellulose) (HPC)
[10] = dose: 200.0 mg/kg/injection, schedule: Q01DX009 (ip), vehicle: Klucel (hydroxypropylcellulose) (HPC)
[11] = dose: 50.0 mg/kg/injection, schedule: Q01DX009 (ip), vehicle: saline
[12] = dose: 100.0 mg/kg/injection, schedule: Q01DX009 (ip), vehicle: saline
[13] = dose: 50.0 mg/kg/injection, schedule: Q01DX005 (ip), vehicle: Klucel (hydroxypropylcellulose) (HPC)
[14] = dose: 100.0 mg/kg/injection, schedule: Q01DX005 (ip), vehicle: Klucel (hydroxypropylcellulose) (HPC)
[15] = dose: 200.0 mg/kg/injection, schedule: Q01DX005 (ip), vehicle: Klucel (hydroxypropylcellulose) (HPC)
[16] = dose: 60.0 mg/kg/injection, schedule: Q01DX005 (ip), vehicle: saline with Tween-80
[17] = dose: 120.0 mg/kg/injection, schedule: Q01DX005 (ip), vehicle: saline with Tween-80
[18] = dose: 240.0 mg/kg/injection, schedule: Q01DX005 (ip), vehicle: saline with Tween-80

Cn1c(=O)c2nncnc2n(C)c1=O
T/C [1]: 96 % of control
T/C [2]: 93 % of control
T/C [3]: 93 % of control
T/C [4]: 94 % of control

O=S(=O)(O)O.[NH-]CC[NH-].[Pt+2]
T/C (dose: 6.25 mg/kg/injection, schedule: Q04DX002 (ip), vehicle: saline): 168 % of control
T/C (dose: 12.5 mg/kg/injection, schedule: Q04DX002 (ip), vehicle: saline): 97 % of control

O=C1CC(SC(=S)C2CCCC2=O)C(=O)O1 (stereo not drawn)
T/C (dose: 12.5 mg/kg/injection, schedule: Q01DX009 (ip), vehicle: saline with Tween-80): 109 % of control and 118 % of control
T/C (dose: 25.0 mg/kg/injection, schedule: Q01DX009 (ip), vehicle: saline with Tween-80): 109 % of control and 118 % of control
T/C [5]: 118 % of control

Cn1c(N)nc2c([nH]c(=O)n2C2OC(CO)C(O)C2O)c1=O (stereo not drawn)
T/C (dose: 60.0 mg/kg/injection, schedule: Q01DX005 (ip), vehicle: Klucel (hydroxypropylcellulose) (HPC)): 105 % of control
T/C [6]: 111 % of control
T/C (dose: 240.0 mg/kg/injection, schedule: Q01DX005 (ip), vehicle: Klucel (hydroxypropylcellulose) (HPC)): 111 % of control

COc1ccc(C(=O)C2Cc3c(ccc4ccccc34)OC2=O)cc1 (stereo not drawn)
T/C [5]: 95 % of control
T/C (dose: 100.0 mg/kg/injection, schedule: Q01DX009 (ip), vehicle: saline with Tween-80): 91 % of control
T/C [7]: 88 % of control

Cn1nnc(/C(N)=N/N=C/c2ccccc2)n1
T/C [8]: 100 % of control
T/C [9]: 102 % of control
T/C [10]: 94 % of control

O=c1[nH]c(=O)n(C2OC(CO)C(O)C2O)c(=O)[nH]1 (stereo not drawn)
T/C (dose: 60.0 mg/kg/injection, schedule: Q01DX005 (ip), vehicle: saline): 100 % of control
T/C (dose: 120.0 mg/kg/injection, schedule: Q01DX005 (ip), vehicle: saline): 95 % of control
T/C (dose: 240.0 mg/kg/injection, schedule: Q01DX005 (ip), vehicle: saline): 96 % of control

CC(=O)OC/C(C)=N\NS(=O)(=O)c1cc(Cl)c(Cl)cc1Cl
T/C [11]: 99 % of control
T/C [12]: 86 % of control

Cc1cc(=O)n2[nH]c(-c3ccc(Cl)cc3)nc2n1
T/C [8]: 106 % of control
T/C [9]: 103 % of control
T/C [10]: 100 % of control

CCOc1cccc2c(NCCCCCCCCNc3c4ccccc4nc4c(OCC)cccc34)c3ccccc3nc12
T/C (dose: 3.75 mg/kg/injection, schedule: Q01DX009 (ip), vehicle: other): 166 % of control
T/C (dose: 7.5 mg/kg/injection, schedule: Q01DX009 (ip), vehicle: other): 157 % of control

Cn1cc(CCc2cc[n+](CCC[n+]3ccc(CCc4cn(C)c5ccccc45)cc3)cc2)c2ccccc21
T/C (dose: 6.25 mg/kg/injection, schedule: Q01DX009 (ip), vehicle: Klucel (hydroxypropylcellulose) (HPC)): 104 % of control
T/C (dose: 12.5 mg/kg/injection, schedule: Q01DX009 (ip), vehicle: Klucel (hydroxypropylcellulose) (HPC)): 106 % of control

Cn1c2ccccc2c(=O)c2cc(NC(=O)CCCCCCCC(=O)Nc3ccc4c(c3)c(=O)c3ccccc3n4C)ccc21
T/C [2]: 92 % of control
T/C [3]: 97 % of control
T/C [4]: 101 % of control

C=C(C)C(=NC(C)(C)C)Nc1cccc(Cl)c1
T/C [11]: 100 % of control
T/C [12]: 104 % of control
T/C (dose: 200.0 mg/kg/injection, schedule: Q01DX009 (ip), vehicle: saline): 100 % of control

Cc1ccc2c(c1)Nc1ccc(C)cc1C2(C)C
T/C [13]: 104 % of control
T/C [14]: 100 % of control
T/C [15]: 97 % of control

Cc1noc2c1CC(=O)c1ccccc1OC2
T/C [16]: 100 % of control
T/C [17]: 98 % of control
T/C [18]: 94 % of control

CCCC/C([O-])=C1/C(=O)N(c2ccccc2)N=C1C.CCCC/C([O-])=C1/C(=O)N(c2ccccc2)N=C1C.[Cu+2]
T/C [16]: 90 % of control
T/C [17]: 97 % of control
T/C [18]: 96 % of control

N#CCOC1OC(CO)C(O)C(O)C1O (stereo not drawn)
T/C [13]: 100 % of control
T/C [14]: 99 % of control
T/C [15]: 99 % of control

CCC1C2CC3C4N(C)c5ccccc5C45CC(C2C5O)N3C1O (stereo not drawn)
T/C (dose: 0.31 mg/kg/injection, schedule: Q01DX009 (ip), vehicle: saline): 102 % of control and 106 % of control
T/C (dose: 0.62 mg/kg/injection, schedule: Q01DX009 (ip), vehicle: saline): 99 % of control and 106 % of control and 121 % of control
T/C (dose: 1.25 mg/kg/injection, schedule: Q01DX009 (ip), vehicle: saline): 102 % of control and 106 % of control and 95 % of control
T/C (dose: 2.5 mg/kg/injection, schedule: Q01DX009 (ip), vehicle: saline): 99 % of control and 105 % of control (2×)
T/C (dose: 5.0 mg/kg/injection, schedule: Q01DX009 (ip), vehicle: saline): 102 % of control
T/C (dose: 10.0 mg/kg/injection, schedule: Q01DX009 (ip), vehicle: saline): 105 % of control
T/C (dose: 15.0 mg/kg/injection, schedule: Q01DX005 (ip), vehicle: saline with Tween-80): 100 % of control
T/C (dose: 30.0 mg/kg/injection, schedule: Q01DX005 (ip), vehicle: saline with Tween-80): 94 % of control
T/C [16]: 93 % of control and 100 % of control
T/C [17]: 93 % of control

CCCCCCCCCCCCCCCCOc1ccc(-c2cc(Cl)c3cc(S(=O)(=O)F)ccc3n2)cc1S(=O)(=O)F
T/C [5]: 86 % of control
T/C (dose: 50.0 mg/kg/injection, schedule: Q04DX003 (ip), vehicle: saline with Tween-80): 90 % of control
T/C [7]: 90 % of control
T/C (dose: 200.0 mg/kg/injection, schedule: Q04DX003 (ip), vehicle: saline with Tween-80): 90 % of control

CNC(=O)OCCC(OC(=O)NC)C1CCC2C3CCC4CC(OC(=O)NC)CCC4(C)C3CCC12C (stereo not drawn)
T/C (dose: 100.0 mg/kg/injection, schedule: Q01DX001 (ip), vehicle: Klucel (hydroxypropylcellulose) (HPC)): 108 % of control
T/C (dose: 200.0 mg/kg/injection, schedule: Q01DX001 (ip), vehicle: Klucel (hydroxypropylcellulose) (HPC)): 108 % of control
T/C (dose: 400.0 mg/kg/injection, schedule: Q01DX001 (ip), vehicle: Klucel (hydroxypropylcellulose) (HPC)): 101 % of control

CC(C)C12CC(COCc3ccccc3)OC1=NC(=O)NC2=O (stereo not drawn)
T/C [8]: 112 % of control
T/C [9]: 103 % of control
T/C [10]: 94 % of control

CCC/C(=N\NC(=S)N1CC2CCC(CC2)C1)c1ccccn1
T/C (dose: 6.25 mg/kg/injection, schedule: Q01DX005 (ip), vehicle: saline with Tween-80): 104 % of control and 110 % of control
T/C (dose: 12.5 mg/kg/injection, schedule: Q01DX005 (ip), vehicle: saline with Tween-80): 113 % of control and 116 % of control
T/C [1]: 120 % of control

Cn1nc(C(N)=O)c(=O)[nH]c1=O
T/C [2]: 104 % of control
T/C [3]: 97 % of control
T/C [4]: 103 % of control

CS(=O)(=O)CCS(C)(=O)=O
T/C [5]: 102 % of control
T/C [7]: 89 % of control

CC(=O)c1c(C)n(-c2ccccc2)c2c1nnc1ccccc12
T/C (dose: 3.75 mg/kg/injection, schedule: Q01DX005 (ip), vehicle: Klucel (hydroxypropylcellulose) (HPC)): 101 % of control
T/C (dose: 7.5 mg/kg/injection, schedule: Q01DX005 (ip), vehicle: Klucel (hydroxypropylcellulose) (HPC)): 93 % of control
T/C (dose: 15.0 mg/kg/injection, schedule: Q01DX005 (ip), vehicle: Klucel (hydroxypropylcellulose) (HPC)): 95 % of control
T/C [6]: 96 % of control

CC(C)(C)C1=CC(CC(N)=O)(C(C)(C)C)OC1=O (stereo not drawn)
T/C [13]: 98 % of control
T/C [14]: 100 % of control
T/C [15]: 105 % of control

NCCCn1[nH]c(=O)c2ncccc2c1=O
T/C [16]: 110 % of control
T/C [17]: 112 % of control
T/C [18]: 102 % of control

COC/C(Br)=C\SC#N (tested in a mixture with another compound)
T/C (dose: 3.75 mg/kg/injection, schedule: Q01DX005 (ip), vehicle: saline with Tween-80): 120 % of control
T/C (dose: 7.5 mg/kg/injection, schedule: Q01DX005 (ip), vehicle: saline with Tween-80): 122 % of control

COc1ccc2ncc(CO)c(CO)c2c1
T/C [15]: 100 % of control

O=C1C(=C2CCCC2)CC/C1=C1/SS/C(=C2/CCC(=C3CCCC3)C2=O)S1
T/C [8]: 99 % of control
T/C [9]: 101 % of control
T/C [10]: 100 % of control

COc1cccc(/C=C(\NC(=O)c2ccccc2)c2nc3ccccc3s2)c1
T/C [2]: 110 % of control
T/C [3]: 116 % of control
T/C [18]: 116 % of control

COC1OC(C(C)Br)C2OC(C)(C)OC12 (stereo not drawn)
T/C [16]: 105 % of control
T/C [17]: 102 % of control
T/C [18]: 107 % of control

From PubChem BioAssay AID330 (DTP/NCI, 2004)
